In one data set the target is T1, Y4 (Homo sapiens, UniProt P50391).
T1 construct: host or cells: Chem-1 cells expressing Galpha15
Description: GPCR Profiler. The data set is classed as cell-based.

For the next data set, the target named is T2, RIPK1 (Homo sapiens, UniProt Q13546).
T2 construct: purchased DiscoveRx (Fremont, CA)
Description: KinomeScan. The data set is classed as binding. The note with it: read-out: % Control.

In another data set the target is T3, TLK2 (Homo sapiens, UniProt Q86UE8).
T3 construct: purchased DiscoveRx (Fremont, CA)
Put plainly: KinomeScan. The class given is binding. The note with it: read-out: % Control.

A further data set has as its target T4, ROCK2 (Homo sapiens, UniProt O75116).
T4 construct: purchased DiscoveRx (Fremont, CA)
Put plainly: KinomeScan. The conditions noted are these: read-out: % Control. The data set is classed as binding.

In a further data set the target is T5, PRP4 (Homo sapiens, UniProt Q13523).
T5 construct: purchased DiscoveRx (Fremont, CA)
Description: KinomeScan. The data set is classed as binding. The note with it: read-out: % Control. As to the method: (§1) GPCR profiling assays were performed by Millipore (St. Louis, MO) using in cells expressing Gα15, a promiscuous G protein that enhances GPCR coupling to downstream Ca2+ signaling pathways. KinomeScan was conducted by DiscoveRx (Fremont, CA).
(§2) To identify the target of OGM1, the molecule was profiled for binding in a panel of 442 kinases (KinomeScan™, DiscoveRx™) and assessed its activity against 158 GPCRs in a single-point assay in Chem-1 cells that uses a promiscuous Gα15 protein to trigger calcium flux (see Table 9 and Table 10, below). […] Table 9. KinomeScan (DiscoverRx) profiling of OGM1.

The next data set has as its target T6, CDC2L5 (Homo sapiens, UniProt Q14004).
T6 construct: purchased DiscoveRx (KinomeScan service)
Description: KinomeScan. The class given is binding. The note with it: read-out: % Control. As to the method:
as §1, §2

Another data set deals with T7, ZAK (Homo sapiens, UniProt Q9NYL2).
T7 construct: purchased DiscoveRx
Put plainly: KinomeScan. The data set is classed as binding. The note with it: read-out: % Control.

In another data set the target is T8, PAK6 (Homo sapiens, UniProt Q9NQU5).
T8 construct: purchased DiscoveRx
Description: KinomeScan. The class given is binding. The note with it: read-out: % Control.

Another data set deals with T9, S1P2 (Homo sapiens, UniProt O95136).
T9 construct: host or cells: Chem-1 cells with Gα15
Put plainly: GPCR Profiler. The class given is cell-based.

Another data set concerns the target T10, TNNI3K (Homo sapiens, UniProt Q59H18).
T10 construct: purchased DiscoveRx (Fremont, CA)
Put plainly: KinomeScan. The note with it: read-out: % Control. The class given is binding.

The next data set deals with T11, XCR1 (Homo sapiens, UniProt P46094).
T11 construct: host or cells: Chem-1 cells expressing Galpha15
Description: GPCR Profiler. The class given is cell-based.

A further data set concerns the target T12, TNK2 (Homo sapiens, UniProt Q07912).
T12 construct: purchased DiscoveRx (Fremont, CA)
Description: KinomeScan. The class given is binding. The note with it: read-out: % Control.

The next data set concerns the target T13, GPR43 (Homo sapiens, UniProt O15552).
T13 construct: host or cells: Chem-1 cells with promiscuous Gα15
Put plainly: GPCR Profiler. The class given is cell-based.

The next data set concerns the target T14, ACVR1B (Homo sapiens, UniProt P36896).
T14 construct: purchased DiscoveRx
Description: KinomeScan. The class given is binding. The conditions noted are these: read-out: % Control.

The next data set concerns the target T15, PIK4CB (Homo sapiens, UniProt Q9UBF8).
T15 construct: purchased DiscoveRx (Fremont, CA)
Description: KinomeScan. The conditions noted are these: read-out: % Control. The class given is binding.

The target in a further data set is T16, V2 (Homo sapiens, UniProt P30518).
T16 construct: host or cells: Chem-1 cells expressing Galpha15
Put plainly: GPCR Profiler. The class given is cell-based.

The next data set concerns the target T17, mGlu2 (Homo sapiens, UniProt Q14416).
T17 construct: host or cells: Chem-1 cells expressing Gα15
Description: GPCR Profiler. The class given is cell-based.

For data set [1], the target named is T18, RSK4(Kin.Dom.2-C-terminal) (Homo sapiens, UniProt Q9UK32).
T18 construct: RSK4(Kin.Dom.2-C-terminal); purchased DiscoveRx (Fremont, CA)
Description: KinomeScan. The data set is classed as binding. The conditions noted are these: read-out: % Control.

The target in another data set is T19, NPBW1 (Homo sapiens, UniProt P48145).
T19 construct: host or cells: Chem-1 cells expressing Gα15
Put plainly: GPCR Profiler. The class given is cell-based.

In another data set the target is T20, KIT(L576P) (Homo sapiens, UniProt P10721, L576P).
T20 construct: purchased DiscoveRx
Description: KinomeScan. The class given is binding. The conditions noted are these: read-out: % Control.

Another data set deals with Thrombin Activated PARs. Description: GPCR Profiler. The class given is cell-based.
For a further data set, the target named is T21, NK2 (Homo sapiens, UniProt P21452).
T21 construct: host or cells: Chem-1 cells expressing Gα15
Put plainly: GPCR Profiler. The data set is classed as cell-based.

For a further data set, the target named is T22, D1 (Homo sapiens, UniProt P21728).
T22 construct: host or cells: Chem-1 cells with Gα15
Description: GPCR Profiler. The data set is classed as cell-based.

Data set [2] concerns 6 independent patient derived lines (PDX and Neurospheres). Description: 2D monolayer viability (Cell Titer-Glo). The data set is classed as cell-based. The note with it: Homo sapiens; range over the 6 lines; read-out: LC50 (the source's name). As to the method:
GBM neurospheres and low passage PDX models were plated in 96-well plates at 10,000 cells per well in 50 μL of neural stem cell media. The next day, the cells were treated with OGM2 compounds at the indicated concentrations, in triplicates, by adding an equal volume of medium containing 2× the final concentration of compound. Following 72 hours incubation under standard cell culture conditions, relative cell number was assessed using Cell Titer-Glo Luminescent Cell Viability Assay (Promega™) following the manufacturer's instructions. Luminescence was determined using a Cytation 5 reader and Gen5 software package (BioTek™). For U87 and U138 cell lines, one thousand cells were plated per well in a standard 96-well plate and allowed to attach for 24 hours before exposure to concentrations of vehicle, OGM2, or TMZ. Cells were treated for 72 hours and then stained with DAPI. A 10× magnification lens on a LionheartFX (BioTek™) was used to image the wells, and images were stitched together with Gen5 software (BioTek™). Automated nuclei counting was also done using the Gen5 software. Results reported as percent response relative to DMSO control. IC50 (the concentration causing 50% inhibition) was determined by GraphPad Prism™ version 6.07.
See FIG. 56, FIG. 55E, and FIG. 55F. […] Similarly.

A further data set concerns HEK293. The class given is cell-based. An excerpt: FIG. 59A through FIG. 59D: OGM2 causes specific cell death in glioblastoma cells.
Thus, in contrast to erastin, OGM2 induces ferroptosis selectively in cancer cells.

This is an account of results in US20240327364A1, “THERAPEUTIC TARGETING OF GPR68 TO INDUCE FERROPTOSIS” (University Of Maryland, Baltimore, priority 2023, published 2024).

T19 sequence (P48145 whole entry): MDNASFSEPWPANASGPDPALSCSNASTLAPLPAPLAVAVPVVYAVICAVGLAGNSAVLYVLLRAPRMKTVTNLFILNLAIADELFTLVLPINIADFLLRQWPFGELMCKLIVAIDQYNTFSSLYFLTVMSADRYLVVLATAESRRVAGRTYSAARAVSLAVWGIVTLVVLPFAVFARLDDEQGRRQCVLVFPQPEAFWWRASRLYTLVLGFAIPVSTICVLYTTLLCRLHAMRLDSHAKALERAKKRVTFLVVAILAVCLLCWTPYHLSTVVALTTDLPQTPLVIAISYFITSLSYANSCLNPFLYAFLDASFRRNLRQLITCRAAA
T21 sequence (P21452 whole entry): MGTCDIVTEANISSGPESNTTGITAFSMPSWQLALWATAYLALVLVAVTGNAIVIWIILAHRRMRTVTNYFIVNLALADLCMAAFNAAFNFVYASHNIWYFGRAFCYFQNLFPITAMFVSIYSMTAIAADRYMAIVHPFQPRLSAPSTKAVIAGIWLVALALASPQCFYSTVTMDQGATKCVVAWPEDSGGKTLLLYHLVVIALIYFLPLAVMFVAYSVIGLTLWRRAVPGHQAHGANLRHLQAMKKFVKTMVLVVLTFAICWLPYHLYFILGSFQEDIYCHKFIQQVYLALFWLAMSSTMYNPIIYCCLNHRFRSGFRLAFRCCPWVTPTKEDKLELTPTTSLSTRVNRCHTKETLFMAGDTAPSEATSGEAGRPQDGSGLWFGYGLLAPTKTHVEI
T16 sequence (P30518 whole entry): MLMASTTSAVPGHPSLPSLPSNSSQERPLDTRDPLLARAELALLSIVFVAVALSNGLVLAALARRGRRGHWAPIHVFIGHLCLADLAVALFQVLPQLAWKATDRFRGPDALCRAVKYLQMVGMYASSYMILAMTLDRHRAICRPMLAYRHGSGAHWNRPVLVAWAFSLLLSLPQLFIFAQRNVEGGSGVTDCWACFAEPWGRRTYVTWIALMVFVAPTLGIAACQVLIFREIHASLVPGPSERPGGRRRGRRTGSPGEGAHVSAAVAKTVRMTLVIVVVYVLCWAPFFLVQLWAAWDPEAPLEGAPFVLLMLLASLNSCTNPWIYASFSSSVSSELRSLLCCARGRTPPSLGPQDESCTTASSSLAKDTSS
T13 sequence (O15552 whole entry, species assumed): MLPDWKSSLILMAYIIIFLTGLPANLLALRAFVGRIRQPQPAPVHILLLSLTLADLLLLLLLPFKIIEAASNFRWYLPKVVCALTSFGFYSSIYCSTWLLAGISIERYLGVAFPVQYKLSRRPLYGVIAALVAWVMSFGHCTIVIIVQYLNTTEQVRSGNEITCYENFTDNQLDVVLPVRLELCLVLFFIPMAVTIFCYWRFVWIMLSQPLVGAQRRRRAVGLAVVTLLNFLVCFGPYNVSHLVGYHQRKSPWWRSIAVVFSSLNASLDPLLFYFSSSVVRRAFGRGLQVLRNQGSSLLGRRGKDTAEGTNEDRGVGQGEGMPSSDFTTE
T9 sequence (O95136 whole entry, species assumed): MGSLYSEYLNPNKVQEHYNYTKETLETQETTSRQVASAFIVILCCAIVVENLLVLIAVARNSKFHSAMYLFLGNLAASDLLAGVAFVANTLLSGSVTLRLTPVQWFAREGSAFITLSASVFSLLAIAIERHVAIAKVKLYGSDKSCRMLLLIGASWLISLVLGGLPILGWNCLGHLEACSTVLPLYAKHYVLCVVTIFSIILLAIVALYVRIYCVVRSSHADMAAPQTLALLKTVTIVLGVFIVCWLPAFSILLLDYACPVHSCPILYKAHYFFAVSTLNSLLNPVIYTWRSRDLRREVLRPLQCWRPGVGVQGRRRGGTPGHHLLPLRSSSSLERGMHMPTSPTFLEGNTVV
T11 sequence (P46094 whole entry, species assumed): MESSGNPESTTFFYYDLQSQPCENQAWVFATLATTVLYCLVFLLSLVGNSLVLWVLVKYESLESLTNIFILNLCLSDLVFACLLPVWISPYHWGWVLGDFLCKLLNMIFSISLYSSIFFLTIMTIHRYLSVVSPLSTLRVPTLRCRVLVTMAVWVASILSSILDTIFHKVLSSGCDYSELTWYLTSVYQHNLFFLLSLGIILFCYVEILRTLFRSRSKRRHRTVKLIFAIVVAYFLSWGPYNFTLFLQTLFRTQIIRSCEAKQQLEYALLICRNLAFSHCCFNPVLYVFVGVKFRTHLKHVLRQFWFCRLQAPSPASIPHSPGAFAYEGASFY
T17 sequence (Q14416 19-872): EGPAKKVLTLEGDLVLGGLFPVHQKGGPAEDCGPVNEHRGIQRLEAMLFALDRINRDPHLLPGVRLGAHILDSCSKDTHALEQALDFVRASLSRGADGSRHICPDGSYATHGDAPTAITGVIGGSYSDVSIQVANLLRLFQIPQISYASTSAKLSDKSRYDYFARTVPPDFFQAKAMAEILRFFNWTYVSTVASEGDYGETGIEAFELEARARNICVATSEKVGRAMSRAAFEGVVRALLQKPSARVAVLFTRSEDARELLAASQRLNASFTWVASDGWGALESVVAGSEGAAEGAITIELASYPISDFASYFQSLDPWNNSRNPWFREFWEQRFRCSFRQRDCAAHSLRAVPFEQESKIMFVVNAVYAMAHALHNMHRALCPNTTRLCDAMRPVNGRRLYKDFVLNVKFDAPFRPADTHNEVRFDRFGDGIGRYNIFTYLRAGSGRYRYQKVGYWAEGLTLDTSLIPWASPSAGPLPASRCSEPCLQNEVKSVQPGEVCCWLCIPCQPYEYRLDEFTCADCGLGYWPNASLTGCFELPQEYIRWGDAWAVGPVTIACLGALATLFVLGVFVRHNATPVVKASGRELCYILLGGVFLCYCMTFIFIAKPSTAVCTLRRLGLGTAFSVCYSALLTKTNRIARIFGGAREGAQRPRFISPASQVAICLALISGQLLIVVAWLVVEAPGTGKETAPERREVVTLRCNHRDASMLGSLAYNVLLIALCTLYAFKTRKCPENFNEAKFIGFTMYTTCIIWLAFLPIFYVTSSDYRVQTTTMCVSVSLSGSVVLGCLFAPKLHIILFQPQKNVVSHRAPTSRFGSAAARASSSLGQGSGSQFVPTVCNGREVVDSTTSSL
T22 sequence (P21728 whole entry): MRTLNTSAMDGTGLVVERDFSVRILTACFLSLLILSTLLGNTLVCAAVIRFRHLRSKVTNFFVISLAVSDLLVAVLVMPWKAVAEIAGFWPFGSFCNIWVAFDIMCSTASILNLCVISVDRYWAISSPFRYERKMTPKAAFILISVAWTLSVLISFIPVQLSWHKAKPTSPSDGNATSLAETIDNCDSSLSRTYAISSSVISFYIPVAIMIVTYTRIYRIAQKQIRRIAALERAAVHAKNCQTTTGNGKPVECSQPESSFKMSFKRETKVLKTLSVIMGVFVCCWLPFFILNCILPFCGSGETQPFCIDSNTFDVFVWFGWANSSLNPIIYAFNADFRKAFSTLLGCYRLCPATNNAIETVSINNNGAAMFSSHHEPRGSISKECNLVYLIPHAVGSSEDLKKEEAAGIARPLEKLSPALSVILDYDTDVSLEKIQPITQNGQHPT
T1 sequence (P50391 whole entry): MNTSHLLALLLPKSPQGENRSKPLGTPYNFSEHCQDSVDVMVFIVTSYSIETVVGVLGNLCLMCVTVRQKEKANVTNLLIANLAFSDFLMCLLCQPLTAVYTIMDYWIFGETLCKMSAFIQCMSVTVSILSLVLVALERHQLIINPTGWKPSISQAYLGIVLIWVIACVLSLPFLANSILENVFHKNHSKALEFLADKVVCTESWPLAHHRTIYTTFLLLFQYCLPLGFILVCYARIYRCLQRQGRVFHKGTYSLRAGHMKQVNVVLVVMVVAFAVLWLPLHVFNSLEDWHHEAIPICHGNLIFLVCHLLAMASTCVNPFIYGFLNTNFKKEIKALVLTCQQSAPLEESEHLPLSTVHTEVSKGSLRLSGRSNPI
T12 sequence (Q07912 whole entry): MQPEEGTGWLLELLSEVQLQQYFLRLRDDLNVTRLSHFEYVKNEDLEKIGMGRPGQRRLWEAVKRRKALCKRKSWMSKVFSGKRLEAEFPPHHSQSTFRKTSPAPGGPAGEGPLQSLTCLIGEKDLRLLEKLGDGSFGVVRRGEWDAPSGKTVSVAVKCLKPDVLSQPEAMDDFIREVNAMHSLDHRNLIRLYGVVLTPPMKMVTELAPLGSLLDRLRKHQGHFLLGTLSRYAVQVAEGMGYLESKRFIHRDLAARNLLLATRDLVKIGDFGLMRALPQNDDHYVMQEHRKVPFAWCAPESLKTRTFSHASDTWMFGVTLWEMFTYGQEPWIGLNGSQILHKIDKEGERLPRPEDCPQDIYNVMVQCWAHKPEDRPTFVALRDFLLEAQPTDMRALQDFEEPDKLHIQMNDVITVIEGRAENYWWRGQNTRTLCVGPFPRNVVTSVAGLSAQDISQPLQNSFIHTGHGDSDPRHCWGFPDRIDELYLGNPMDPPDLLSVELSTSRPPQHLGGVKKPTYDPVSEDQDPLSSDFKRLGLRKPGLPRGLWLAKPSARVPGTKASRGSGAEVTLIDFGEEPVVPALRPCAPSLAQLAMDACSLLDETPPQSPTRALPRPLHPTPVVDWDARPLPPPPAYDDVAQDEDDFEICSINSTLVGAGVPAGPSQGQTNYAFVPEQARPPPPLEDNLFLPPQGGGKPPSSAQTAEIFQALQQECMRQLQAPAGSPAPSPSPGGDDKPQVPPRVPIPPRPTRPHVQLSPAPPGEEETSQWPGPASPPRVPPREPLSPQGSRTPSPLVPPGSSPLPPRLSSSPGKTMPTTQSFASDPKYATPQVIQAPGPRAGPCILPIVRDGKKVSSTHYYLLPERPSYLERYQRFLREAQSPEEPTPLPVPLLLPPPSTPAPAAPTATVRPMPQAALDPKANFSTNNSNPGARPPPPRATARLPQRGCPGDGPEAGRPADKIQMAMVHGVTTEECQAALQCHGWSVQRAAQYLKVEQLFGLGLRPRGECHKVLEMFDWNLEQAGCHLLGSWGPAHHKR

On to `CCc1ccc2c(c1)C1(NN=C(c3cccc4ccccc34)S1)C(=O)N2` (centres unmarked) [OGM1, 5-ethyl-5′-naphthalen-1-ylspiro[1H-indole-3,2′-3H-1,3,4-thiadiazole]-2-one], for which the Antagonism at Y4 (10 uM) is recorded as −5.5; on S1P2 (10 uM) it was −3.3; at XCR1 (10 uM) it was 1.8; on GPR43 (10 uM), 6.4; at V2 (10 uM), 2.9; on mGlu2 (10 uM) it was −1.2. Further, the Antagonism at NPBW1 (10 uM) came to 22.8; in the data set on Thrombin Activated PARs (10 uM), 3.2; at NK2 (10 uM), 1; at D1 (10 uM), 5. Also, the Agonism on Y4 (12.5 uM) is −0.2; on S1P2 (12.5 uM) it was 0.5; on XCR1 (12.5 uM), 0.1; on GPR43 (12.5 uM), −0.2; at V2 (12.5 uM), 0.6; on mGlu2 (12.5 uM) it was −0.4. The Agonism on NPBW1 (12.5 uM) turned out to be 0.5; with Thrombin Activated PARs (12.5 uM) it was 1; at NK2 (12.5 uM), 0; at D1 (12.5 uM) it was 0. Moreover, the remaining binding at 10 µM on RIPK1 is 100%; at TLK2, 71%; at ROCK2, 73%; at PRP4 it was 100%; at CDC2L5, 99%; at ZAK it was 100%. Also, the remaining binding at 10 µM at PAK6 was determined as 89%; at TNNI3K it was 100%; at TNK2, 100%; at ACVR1B it was 100%; on PIK4CB, 71%; in data set [1], 41%. Besides, at KIT(L576P), the remaining binding at 10 µM was determined as 82%.
Turning to `CCc1ccc2c(c1)C1(NN=C(c3ccccc3)S1)C(=O)N2` (centres unmarked) [OGM2], the CC50 in data set [2] fell in the range of 0.42 to 2.7 µM. Also, the “HEK293 cell viability / survival” value in the data set with HEK293 was “no effect”.
